For one data set, the system named is Lymphome. Briefly: Effect on lymphomas.
Another data set has as its system Hepatitis-Viren. Briefly: Antiviral effect. As to conditions: in particular as vesicles holding antisense constructs.
The next data set relates to Normale Zellen. Briefly: Mean IC50 over all normal cell lines. The format is cell-based. The following applies: mean over normal cell lines; read-out: IC50 Normale Zellen (Durchschnitt ± SD). The protocol:
(§1) Die Silane 1, 5, 9, 10, 11, 13, 15, 16 wurden in Ethanol gelöst und in MTT Assays in einer anfänglichen Konzentration von 200 µg/ml (5 Lösungsschritte 200 - 12.5 µg/ml) verwendet. Die Platten wurde für eine Dauer.von 4 Tagen inkubiert und die Entwicklungsfähigkeit mithilfe des EZ4U Test bestimmt. Die IC50 Werte wurden ausgehend von Dosierungs-Reaktions-Linien berechnet Zelllinien: Colo 205 and HT29 - Kolonkarzinom; BxPC3 and MIAPaCa2 - Pankreaskrebs; CRO2B - karzinoid, A431 Epidermalkarzinom; normale Zellen: WI38 - humane embryonale Fibroblasten; NIH3T3 - mausartige Fibroblasten; IEC6 - mausartige Enterozyten.
(§2) Mittelwerte-IC50 für alle Krebs- oder normalen Zelllinien: […]

In another data set the test system is Basalzellkarzinome. Briefly: Effect on basal cell carcinomas.
A further data set deals with MIAPaCa2 - Pankreaskrebs. Briefly: MTT assay / EZ4U test, 4 days. The following applies: Homo sapiens, MIA PaCa-2; 200 - 12.5 µg/ml, 4 Tage; read-out: IC50 MlAPaCa2. Format: cell-based. On the procedure: as §1
Data set [1] concerns IEC6 - mausartige Enterozyten. Briefly: MTT assay / EZ4U test, 4 days. Format: cell-based. As to conditions: Rattus norvegicus, IEC-6; 200 - 12.5 µg/ml, 4 Tage; read-out: IC50 IEC6. On the procedure: as §1
The test system of another data set is HT29 - Kolonkarzinom. Briefly: MTT assay / EZ4U test, 4 days. Format: cell-based. The following applies: Homo sapiens, HT-29; 200 - 12.5 µg/ml, 4 Tage; read-out: IC50 HT29. The protocol:
as §1

The test system of another data set is CRO2B - karzinoid. Briefly: MTT assay / EZ4U test, 4 days. The format is cell-based. The following applies: 200 - 12.5 µg/ml, 4 Tage; read-out: IC50 CR02B. The protocol: as §1
For another data set, the system named is A431 Epidermalkarzinom. Briefly: MTT assay / EZ4U test, 4 days. The format is cell-based. The following applies: Homo sapiens, A-431; 200 - 12.5 µg/ml, 4 Tage; read-out: IC50 A431. The protocol:
as §1

The test system of data set [2] is NIH3T3 - mausartige Fibroblasten. Briefly: MTT assay / EZ4U test, 4 days. Format: cell-based. As to conditions: Mus musculus, NIH3T3; 200 - 12.5 µg/ml, 4 Tage; read-out: IC50 NIH3T3. The protocol:
as §1

The subject of data set [3] is WI38 - humane embryonale Fibroblasten. Briefly: MTT assay / EZ4U test, 4 days. The format is cell-based. The following applies: Homo sapiens, WI-38; 200 - 12.5 µg/ml, 4 Tage; read-out: IC50 WI38. The protocol: as §1
The next data set concerns BxPC3 - Pankreaskrebs. Briefly: MTT assay / EZ4U test, 4 days. The format is cell-based. The following applies: Homo sapiens, BXPC-3; 200 - 12.5 µg/ml, 4 Tage; read-out: IC50 BxPC3. The protocol:
as §1

Another data set relates to Colo 205 - Kolonkarzinom. Briefly: MTT assay / EZ4U test, 4 days. As to conditions: Homo sapiens, COLO 205; 200 - 12.5 µg/ml, 4 Tage; read-out: IC50 Colo205. The format is cell-based. On the procedure: as §1
The test system of the next data set is Maus. Briefly: Pharmacological observation in the mouse (central, vegetative and toxic effects, acute toxicity). The format is in vivo. The text has this: Pharmakologische Untersuchungen an der Maus
Die Verbindungen wurden an der Maus auf zentrale, vegetative und toxische Effekte geprüft. Durch systemische Einzelbeobachtungen sind neben der akuten Toxizität (orienberende letale Dosis, oLD) zentrale und vegetative Wirkungen der Testsubstanzen, insbesondere Effekte auf die Motorik und das Reaktionsvermögen, die Haut- und Rektaltemperatur sowie auf die Pupillenmotorik erfasst worden. Die getesteten Dosierungen betrugen 5 •10^-4, 1 • 10^-3 und 5 • 10^-3 mol/kg Körpergewicht Letale Wirkungen konnten bei keiner der Verbindungen beobachtet werden. Die oLD lag für Di(tetradecanoyloxy)dimethylsilan und Di(octadecanoyloxy)dimethylsilan unter 1 • 10^-3 mol/kg Körpergewicht für alle übrigen Verbindungen unter 5 • 10^-3 mollkg Körpergewicht.

The subject of data set [4] is Kälber-Aortenendothelzellinie BKEz-7. Briefly: tissue or blood. The format is cell-based. The text has this:
Prüfung auf zytotoxisches Potential an Kälber-Aortenendothelzellinie BKEz-7
Als Marker für eine zytotoxische Wirkung wird bei Zellen der charakterisierten Kälber-Aortenendothelzellinie BKEz-7 die Hemmkonzentration ermittelt, bei der eine 50%-ige Hemmung der Zellproliferation erfolgt (im Vergleich zu Kontrollkulturen ohne Zusatz eines Zellinhibitors). Die resultierende Reduzierung der Zellzahl um 50% wird als IC 50 ausgedrückt. Die getesteten Silanverbindungen wurden als Suspensionen auf die Kulturen gegeben und 48 Stunden bei 37°C inkubiert. Zusätzlich erfolgten morphologische Kontrollen und Vitalitätsbestimmungen mittels dem Neutralrot-Test. Mit Ausnahme des Di(dodecanoyloxy)dimethylsilans standen alle Ergebnisse der morphologischen Untersuchungen in guter Übereinstimmung. […]

Data set [5] relates to Panc1 Pankreaskrebszellen. Briefly: subG1 apoptotic fraction, propidium iodide, flow cytometry. The format is cell-based. As to conditions: 50 µg/ml, 4 Tage. The protocol:
(§3) Die Zellen (IEC6 mausartige Enterozyten; Panc1 Pankreaskrebszellen; Colo205 Kolonkarzinom) wurden mit 50 µg/ml Silanen inkubiert und nach 4-tägiger Aussetzung auf DNA eingefärbt (Propidiumiodid). Die SubG1 Zellteilung wurde mittels Durchflusscytometrie bestimmt.

Data set [6] has as its system IEC6 mausartige Enterozyten. The description is as above. The format is cell-based. The following applies: 50 µg/ml, 4 Tage. The protocol:
as §3

Another data set has as its system Colo205 Kolonkarzinom. The data set is described as above. Format: cell-based. The following applies: 50 µg/ml, 4 Tage. The protocol:
as §3

The subject of a further data set is T47D (Brustkrebs). Briefly: MTT test, triplicate, two-fold dilutions. The format is cell-based. As to conditions: Homo sapiens, T47D; up to 500 µg/ml; read-out: IC50 T47D. The protocol: (§4) Die Silan wurden in Ethanol aufgelöst und in Zellkulturmedien in Konzentrationen von bis zu 500 µg/ml resuspendiert. Es wurden MTT Tests in dreifacher Ausführung durchgeführt, für welche doppelte Lösungen (7 Schritte) und colo205 (Kofon-Karzinom), BxPC3 (pankreatisches Adenokarzinom) sowie T47D (Brustkrebs) benutzt wurden.

The subject of the next data set is colo205 (Kofon-Karzinom). Briefly: MTT test, triplicate, two-fold dilutions. As to conditions: Homo sapiens, COLO 205; up to 500 µg/ml; read-out: IC50 Colo205. The format is cell-based. The protocol:
as §4

For data set [7], the system named is BxPC3 (pankreatisches Adenokarzinom). Briefly: MTT test, triplicate, two-fold dilutions. The format is cell-based. As to conditions: Homo sapiens, BXPC-3; up to 500 µg/ml; read-out: IC50 BxPC3. On the procedure: as §4
For a further data set, the system named is Krebszellen. Briefly: Mean IC50 over all cancer cell lines. As to conditions: mean over cancer cell lines; read-out: IC50 Krebszellen (Durchschnitt ± SD). Format: cell-based. On the procedure:
as §1, §2

Converted amounts (≈) assume the structure as drawn. Numbered stars: 1 amine (or outer) side, 2 acyl side, 3 side chain; on linkers, the order of the positions; unused ones are H or OH. Bridge positions count the residues as written; N and C are the ends. Peptide text beside a SMILES is read from it. I, II: the chains in the order shown. X2 = c1ccc([Si](O[*:1])(O[*:2])c2ccccc2)cc1

On to `C[C@H](N)C(=O)N[C@@H](C)C(=O)N[C@@H](C)C(=O)N[C@@H](C)C(=O)O[Si](OC(=O)[C@H](C)NC(=O)[C@H](C)NC(=O)[C@H](C)NC(=O)[C@H](C)N)(c1ccccc1)c1ccccc1` [Diphenyl bis(tetraalanyl)silylester], for which the “Wirkung auf Lymphome” value with Lymphome is “zeigen eine Wirkung”. In the data set on Hepatitis-Viren, the “Wirkung gegen Hepatitis-Viren” value is reported as “zeigen eine Wirkung”.

In the case of `CCCCCCCCCCCCCCCCCC(=O)O[Si](OC(=O)CCCCCCCCCCCCCCCCC)(c1ccccc1)c1ccccc1` [Si10, Di (octadecanoyloxy) diphenylsilan], the IC50 in the data set on Normale Zellen came out at 20.4 µg/mL (≈ 27.2 µM); with MIAPaCa2 - Pankreaskrebs it was 37 µg/mL (≈ 49.4 µM); in [1], 17.2 µg/mL (≈ 23 µM); with HT29 - Kolonkarzinom, 27.5 µg/mL (≈ 36.7 µM); in the data set with CRO2B - karzinoid, 18.5 µg/mL (≈ 24.7 µM); with A431 Epidermalkarzinom, 21.9 µg/mL (≈ 29.2 µM). In addition, the IC50 was 22.2 µg/mL (≈ 29.6 µM) in [2]; 21.8 µg/mL (≈ 29.1 µM) in [3]; 20 µg/mL (≈ 26.7 µM) in the data set on BxPC3 - Pankreaskrebs; 30.6 µg/mL (≈ 40.8 µM) in the data set with Colo 205 - Kolonkarzinom; 84 µM in data set [4] (suspensions, 48 Stunden bei 37°C); 15 µg/mL (≈ 20 µM) in the data set on T47D (Brustkrebs). For the same compound, the IC50 with colo205 (Kofon-Karzinom) came to 60 µg/mL (≈ 80.1 µM); in data set [7], 15 µg/mL (≈ 20 µM); with Krebszellen, 21.9 µg/mL (≈ 29.2 µM). The “Wirkung auf Basalzellkarzinome” value in the data set with Basalzellkarzinome was “zeigen eine Wirkung”. Further, the “zentrale, vegetative und toxische Effekte (Verhaltensänderungen)” value in the data set on Maus (1•10^-3 mol/kg) was “schwache Ataxie, Hyperaktivität und Piloerektion”; in the data set with Maus (5•10^-3 mol/kg), “schwache Ataxie”; in the data set with Maus (5•10^-4 mol/kg), “keine Verhaltensänderungen”. Also, in [4], the “Bedenkliche Toxizität” value is reported as “-”. Also, the “subG1 apoptotische Zellteilung Panc1” value in data set [5] is 60,7 ± 0,2. In [6], the “subG1 apoptotische Zellteilung IEC6” value is reported as 13,4 ± 0,42. In addition, the “subG1 apoptotische Zellteilung Colo205” value with Colo205 Kolonkarzinom is 43,9 ± 1,41.

For `C[C@H](N)C(=O)N[C@@H](C)C(=O)N[C@@H](C)C(=O)N[C@@H](C)C(=O)N[C@@H](C)C(=O)N[C@@H](C)C(=O)N[C@@H](C)C(=O)N[C@@H](C)C(=O)N[C@@H](C)C(=O)O[Si](OC(=O)[C@H](C)NC(=O)[C@H](C)NC(=O)[C@H](C)NC(=O)[C@H](C)NC(=O)[C@H](C)NC(=O)[C@H](C)NC(=O)[C@H](C)NC(=O)[C@H](C)NC(=O)[C@H](C)N)(c1ccccc1)c1ccccc1` [Diphenyl bis(nonaalanyl)silylester] (I: H-AAAAAAAAA / II: H-AAAAAAAAA; linker I:C-II:C via X2), the “Wirkung auf Lymphome” value in the data set with Lymphome is recorded as “zeigen eine Wirkung”. In addition, the “Wirkung gegen Hepatitis-Viren” value with Hepatitis-Viren is given as “zeigen eine Wirkung”.

These data come from EP1948196B1, “USE OF TETRAORGANOSILICON COMPOUNDS” (Salama, Zoser B., priority 2005, dated 2007).
